Measurements as given in patent EP4125996B1, “EZRIN PEPTIDE 1 FOR USE IN A METHOD OF TREATING COVID-19” (priority 2020, dated 2024).
Ends that are not written are not given here.

How the values were obtained:
[1] = high dosages of 50 mg per kg body weight per day or higher; no test or source given; cited from earlier work
SARS-CoV-2 = experiment: Case reports: subcutaneous Ezrin peptide 1 in patients with COVID-19; type: in vivo, humans
J-96 Human Cell Line = details: cell cultures; R. Ataullakhanov et al. 2005; cited from earlier work

## TEKKRRETVEREKE [Ezrin peptide 1, NH2_Thr-Glu-Lys-Lys-Arg-Arg-Glu-Thr-Val-Glu-Arg-Glu-Lys-Glu_COOH]
[1]
  toxicity: not toxic
SARS-CoV-2; Example 1, patient, 0.2 mg s.c. daily, 15.03.2020, 2nd administration
  Course of Disease (symptoms): increasing symptoms
SARS-CoV-2; Example 1, 0.2 mg s.c. daily, 16.03.2020, 3rd administration
  Course of Disease (symptoms): increasing symptoms with strong eye pain
SARS-CoV-2; Example 1, 0.2 mg s.c. daily, 17.03.2020, 4th administration
  Course of Disease (symptoms): increasing symptoms with more cough
SARS-CoV-2; Example 1, 0.2 mg s.c. daily, 18.03.2020, 5th administration
  Course of Disease (symptoms): significant signs of recovery, no eye pain, decreasing fever
SARS-CoV-2; Example 1, 0.2 mg s.c. daily, 19.03.2020, 6th administration
  Course of Disease (symptoms): significant signs of recovery, normal body temperature, no fatigue
SARS-CoV-2; Example 1, 0.2 mg s.c. daily, 20.03.2020, 7th administration
  Course of Disease (symptoms): return of taste, good general condition
SARS-CoV-2; Example 1, 0.2 mg s.c. daily, 21.03.2020, 8th administration
  Course of Disease (symptoms): no signs of illness anymore
SARS-CoV-2; Example 1, compared with the course expected for patients of this risk group
  course of the disease (duration): significantly shorter
SARS-CoV-2; Example 1, compared with what is expected in a patient of this risk group
  severity of symptoms after administration: significantly lower
SARS-CoV-2; Example 2, patient, 2 mg s.c. per dose, 25.04.2020 in the morning, second dose
  body temperature: 37.5 °C
SARS-CoV-2; Example 2, 2 mg s.c., 25.04.2020 in the evening
  body temperature: 39.0 °C
SARS-CoV-2; Example 2, 2 mg s.c., 25.04.2020, second dose
  Course of Disease (symptoms): still general weakness, shortness of breath, cough, loss of appetite
SARS-CoV-2; Example 2, 2 mg s.c., 26.04.2020 in the evening
  body temperature: 37.5 °C
SARS-CoV-2; Example 2, 2 mg s.c., 26.04.2020, third administration
  Course of Disease (symptoms): Still loss of appetite, slight cough
SARS-CoV-2; Example 2, 2 mg s.c., 27.04.2020
  body temperature: 37.4 °C
SARS-CoV-2; Example 2, 2 mg s.c., 27.04.2020, fourth dose
  Course of Disease (symptoms): Slight cough, slight headache
SARS-CoV-2; Example 2, 2 mg s.c., 28.04.2020
  body temperature: 37.3 °C
SARS-CoV-2; Example 2, 2 mg s.c., 28.04.2020, fifth administration
  Course of Disease (symptoms): Only slight pain of touching the scalp, still slight weakness
SARS-CoV-2; Example 2, 2 mg s.c., 30.04.2020, sixth administration
  Course of Disease (symptoms): Significant improvement of clinical symptoms, normal temperature
SARS-CoV-2; Example 2, 01. to 04.05.2020, after six doses, antibiotic coverage due to increased CRP level
  Course of Disease (symptoms): taste completely returned, no more cough, no more fever, clinical well-being
SARS-CoV-2; Example 3, patient, 2 mg/d then 0.2 mg/d for four days s.c., 25.12.2020 (therapy begun 23.12.2020)
  Course of Disease (symptoms): significant improvement of cough and general condition
SARS-CoV-2; Example 3, after completion of HEP-1 therapy
  Course of Disease (symptoms): No further symptoms
SARS-CoV-2; Example 4, patient, 2 mg/d for two days then 0.2 mg/d for four days s.c., 25.12.2020 (therapy begun 23.12.2020)
  Course of Disease (symptoms): significant improvement of cough and general condition
SARS-CoV-2; Example 4, after completion of HEP-1 therapy
  Course of Disease (symptoms): No further symptoms
SARS-CoV-2; Example 5, patient, 2 mg/d for two days then 0,2 mg/d for four days s.c., 26.12.2020 (therapy begun 23.12.2020)
  Course of Disease (symptoms): significant improvement of symptoms
SARS-CoV-2; Example 5, after completion of the initial HEP-1 therapy
  Course of Disease (symptoms): No further symptoms after completion of HEP-1 therapy until 13.01.2021, then severe shortness of breath
SARS-CoV-2; Example 5, after subsequent 0,2 mg/d s.c. for fourteen days from 15.01.2021
  Course of Disease (shortness of breath): No further shortness of breath
SARS-CoV-2; Example 6, patient, 0.2 mg/d s.c. for ten days from 10.12.2020, 14.12.2020
  Course of Disease (symptoms): significant improvement of symptoms
SARS-CoV-2; Example 6, 0.2 mg/d s.c. for ten days, 20.12.2020
  Course of Disease (symptoms): complete recovery of symptoms
J-96 Human Cell Line
  anti-viral effect: has shown an anti-viral effect
